# According to publication PMC9959553, “Promising Antifungal Molecules against Mucormycosis Agents Identified from Pandemic Response Box®: In Vitro and In Silico Analyses” (Journal of Fungi, 2023):
# Test system: R. oryzae UCP1295
# Experiment: Screening of the Pandemic Response Box library at 5 µM
# Format: cell-based, Rhizopus oryzae
# Details: 48 h, Table S1, mean of the four values
# How it was run: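 Compounds at 5 μM in RPMI 1640 with 2% glucose and MOPS (0.165 mol/L, pH 7.2), with conidia at 2 × 10^5/mL, incubated 48 h at 37 °C in 5% CO2. Growth read by OD at 600 nm; hits defined as ≥60% inhibition. Posaconazole (5 μM) and 1% DMSO as controls.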
row,SMILES,"% of growth inhibition, Mean [%]"
1,Nc1nc(=O)[nH]cc1F [MMV004508],-32.5
2,CN(O)C(=O)c1cc2c(CN3CCC[C@H]3C(N)=O)cn(Cc3ccc(F)cc3)c2cn1 [MMV1782386],-4.5
3,C[C@H]1CC[C@@]2(O)C(C)(C)[C@@H]3CC[C@@]2(C)[C@H]1C3 [MMV1578556],-4.8
4,CCCCc1ccc(C(=O)O)nc1 [MMV001726],-15.9
5,CCC(C)(C)c1ccc(CC(C)CN2C[C@@H](C)O[C@@H](C)C2)cc1.Cl (some centres unmarked) [MMV1634358],-26.0
6,CC(Cc1ccccc1)C(=O)Nc1ccc(Cl)cc1C(=O)O (centres unmarked) [MMV1579781],-32.3
7,C[C@H](Cn1cnc2c(N)ncnc21)OCP(=O)(O)O [MMV1580478],-19.5
8,Cc1c(F)cccc1NC(=O)Nc1ccc(Cl)c(S(=O)(=O)[C@H]2CCCNC2)c1O [MMV1581034],-0.9
9,C[C@H]1COc2c(N3CCN(C)CC3)c(F)cc3c(=O)c(C(=O)O)cn1c23 [MMV687798],-8.6
10,Cc1oncc1C(=O)Nc1ccc(C(F)(F)F)cc1 [MMV003291],4.9
11,C[C@@H](O)[C@H](N)C(=O)NS(=O)(=O)c1cccc(-c2ccc3[nH]ncc3c2)c1.Cl.Cl [MMV1582494],-14.6
12,CC[C@H]1OC(=O)[C@H](C)[C@@H](O[C@H]2C[C@@](C)(OC)[C@@H](O)[C@H](C)O2)[C@H](C)[C@@H](O[C@@H]2O[C@H](C)C[C@H](N(C)C)[C@H]2O)[C@](C)(O)C[C@@H](C)C(=O)[C@H](C)[C@@H](O)[C@]1(C)O [MMV003137],-11.8
13,O=C(O)c1ccc(-c2ccc(O[C@H]3O[C@H](CO)[C@@H](O)[C@H](O)[C@@H]3O)cc2)cc1 [MMV1633970],-12.3
14,CC[C@H](CO)NCCN[C@H](CC)CO [MMV687801],-13.2
15,O=C(/C=C/n1cnc(-c2cc(C(F)(F)F)cc(C(F)(F)F)c2)n1)NNc1cnccn1 [MMV1593517],-8.5
16,CCOCc1nc2c(N)nc3ccccc3c2n1CC(C)(C)O [MMV690547],-3.7
17,Cc1cc(CCOc2c(C)cc(-c3nnn(C)n3)cc2C)on1 [MMV1782349],-3.0
18,O=S(=O)(Nc1ccc(O)cc1)c1cccc2cccnc12 [MMV251679],-4.7
19,CN1CCN(Cc2ccc(-c3cnc4[nH]cc(-c5ccc6[nH]ccc6c5)c4c3)cc2)CC1 [MMV1580482],1.5
20,CSC[C@H]1CN(Cc2c[nH]c3c(N)ncnc23)C[C@@H]1O [MMV1578565],-14.4
21,O=C(Nc1ccccc1C(=O)O)c1cccc(Oc2ccccc2)c1 [MMV1579784],-27.4
22,O=C(Nc1[nH]c(=O)ncc1F)c1ccccc1 [MMV1782225],-27.6
23,COc1ccc(NC(=O)CC2Sc3ncnn3C2=O)cc1 (centres unmarked) [MMV1483032],-13.1
24,CNC(=O)C1O[C@@H](n2cnc3c(NCc4cccc(I)c4)nc(Cl)nc32)[C@H](O)[C@@H]1O (some centres unmarked) [MMV1593514],-5.2

row,SMILES,"% of growth inhibition, Mean [%]"
1,CCCCCCC1c2ccc(O)cc2Oc2cc(O)ccc21 [MMV1593535],-3.0
2,CCc1ccccc1OCCN1CCCCCC1 [MMV1633962],-12.2
3,O=C(Nc1ncc(Cc2cccc3ccccc23)s1)C1CCCCC1 [MMV1593532],-14.7
4,CN1C(=O)C(c2ccccc2)C(=O)N(c2ccccc2)c2cc(C(F)(F)F)ccc21 (centres unmarked) [MMV1782208],-7.5
5,Nc1nc(O)c(Br)c(-c2cccc(Cl)c2)n1 [MMV1645152],4.7
6,Cc1cc(NS(=O)(=O)c2ccc(-c3ccc(F)cc3F)cc2)no1 [MMV1782217],-29.1
7,CCn1cc(C(=O)O)c(=O)c2cc(F)c(N3CCNC(C)C3)c(F)c21.Cl (centres unmarked) [MMV002350],-4.3
8,O=C1c2cccc3cccc(c23)C(=O)N1CC1CO1 (centres unmarked) [MMV1634360],-18.1
9,OCCCCn1cnc2c(O)nc(NCc3ccc(Cl)c(Cl)c3)nc21 [MMV1593542],-14.0
10,CC(C)(C)NC(=O)N[C@H](C(=O)N1C[C@H]2[C@@H]([C@H]1C(=O)NC(CC1CCC1)C(=O)C(N)=O)C2(C)C)C(C)(C)C (some centres unmarked) [MMV1580497],-8.5
11,NC1C2CC3CC(C2)CC1C3 (centres unmarked) [MMV180402],3.0
12,O=C(O)C(Cc1c[nH]c2ccccc12)N1C(=O)c2ccccc2C1=O (centres unmarked) [MMV452821],-16.1
13,C[C@@H](NC(=O)c1cccc(-c2cnc(-c3cc4ccccc4cn3)[nH]2)c1)c1ccc(F)cc1 [MMV1782211],32.8
14,Oc1c(C(Nc2ccccn2)c2ccccc2)ccc2cccnc12 (centres unmarked) [MMV565773],-30.1
15,O=C(O)C[C@H]1CC[C@H](c2ccc(-c3ccc(Nc4ccc(C(F)(F)F)nc4)cn3)cc2)CC1 [MMV1580498],-26.7
16,CCCCc1ccc(-c2nc(C)c(C(=O)OC)s2)cc1 [MMV1634392],-3.4
17,O=[N+]([O-])c1cn(Cc2nc(O)nc(O)c2Br)cn1 [MMV1579777],-6.3
18,O=C(Nc1nnc(-c2ccccc2)o1)c1ccc(F)cc1 [MMV1578578],-32.9
19,O=c1oc2ccc(Br)cc2cc1CSc1ncc[nH]1 [MMV1782105],-13.4
20,Cc1c(N)cccc1Cn1ccc(OCCc2cccs2)cc1=O [MMV1578557],-5.6
21,O=[N+]([O-])/C(Br)=C/c1ccc(Br)o1 [MMV1645051],-39.6
22,CCC(CC)[C@H](NC(C)=O)[C@@H]1[C@H](O)[C@@H](C(=O)O)C[C@H]1NC(=N)N [MMV1593511],1.4
23,C[C@H](NC(=O)C(=O)Nc1ccccc1C(C)(C)C)C(=O)N[C@@H](CC(=O)O)C(=O)COc1c(F)c(F)cc(F)c1F [MMV1580794],1.8
24,CC[C@@]1(O)C(=O)OCc2c1cc1n(c2=O)Cc2cc3c(CN(C)C)c(O)ccc3nc2-1.Cl [MMV1633678],-10.2

row,SMILES,"% of growth inhibition, Mean [%]"
1,CN(C)CCNC(=O)c1cccc2cccnc12 [MMV811071],-21.7
2,NC(=O)c1ccc(I)c([N+](=O)[O-])c1 [MMV1581035],-5.0
3,Nc1nc(NC2Cc3ccc(F)cc3C2)nc(N2CCCCC2)n1 (centres unmarked) [MMV1580839],-3.1
4,Cc1c(OCC(F)(F)F)ccnc1C[S+]([O-])c1nc2ccccc2[nH]1 (centres unmarked) [MMV001438],-13.2
5,CCCC(=O)OCCc1ccccc1 [MMV1578899],-2.6
6,CCc1nc2ccc(Cl)cn2c1C(=O)NCc1ccc(N2CCC(c3ccc(OC(F)(F)F)cc3)CC2)cc1 [MMV687696],-33.4
7,NC(=O)c1nccn([C@@H]2O[C@H](CO)[C@@H](O)[C@H]2O)c1=O [MMV1782104],-4.9
8,NNC(=O)c1ccncc1 [MMV002169],-5.4
9,CC(=O)N[C@H](C)C(=O)N[C@H](Cc1ccccc1)C(=O)O [MMV1580845],-37.6
10,O=C(O)c1ccc(-n2nc(-c3ccccc3O)nc2-c2ccccc2O)cc1 [MMV640014],-17.8
11,C[C@@H](NC(=O)c1ccccc1-c1ccccc1)B(O)O [MMV1582493],-37.1
12,CC(C)Oc1ccc(-c2nc(-c3cccc4c3CC[C@@H]4NCCO)no2)cc1C#N [MMV1580492],-7.3
13,OC1O[C@H](CSc2ccc(F)cc2)[C@@H](O)[C@H]1O (some centres unmarked) [MMV1581550],-29.6
14,O=C1CCC(N2C(=O)c3ccccc3C2=O)C(=O)N1 (centres unmarked) [MMV002612],-21.8
15,O=C(/C=C\n1cnc(-c2cc(C(F)(F)F)cc(C(F)(F)F)c2)n1)NNc1ccccn1 [MMV1580493],42.7
16,Nc1nc(=O)c(Br)c(-c2ccccc2)[nH]1 [MMV690540],-23.8
17,COc1ccc(CNC(=O)C2CCN(C(C)c3cccc4ccccc34)CC2)cc1 (centres unmarked) [MMV1634397],-12.7
18,CC1CN(c2ncnc3c2c(-c2ccccc2)cn3-c2ccc(F)cc2)CC(C)O1 (centres unmarked) [MMV093250],-16.0
19,CC(C)CCN1C(=O)C(C2=NS(=O)(=O)c3cc(NS(C)(=O)=O)ccc3N2)=C(O)[C@@H]2[C@H]3CC[C@H](C3)[C@@H]21 [MMV1782220],6.0
20,C[C@@]1(O)[C@H](O)[C@@H](CO)O[C@H]1n1ccc2c(N)ncnc21 [MMV1593519],10.3
21,COc1ccc2nc(-c3ccccc3)cc(O)c2c1 [MMV011565],-42.1
22,CO[C@@]1(NC(=O)Cc2cccs2)C(=O)N2C(C(=O)O)=C(COC(N)=O)CS[C@@H]21 [MMV1578559],-22.5
23,Cc1ccc(N2CCC(CCOc3ccc(S(C)(=O)=O)cc3)CC2)nn1 [MMV1634394],3.3
